# From patent US11806393B2, “Flavivirus peptide sequences, epitopes, and methods and uses thereof” (priority 2017, dated 2023)
# What was measured:
# Assay type in all cases: cell-based, mouse
# CD3+CD8+ T cells = assay: IFNγ ICS, ZIKV-infected Ifnar-/- HLA-B*0702 transgenic mice; settings: for % IFNγ+ CD8+ T cells, FSS13025 / % IFNγ+ CD8+ T cells, MR766: HLA-B*0702 mice; for % IFNγ+ CD8+ T cells, FSS13025: 7 days after ZIKV FSS13025, ICS; for % IFNγ+ CD8+ T cells, MR766: 7 days after ZIKV MR766, ICS; for simultaneous IFNγ and TNFα production by peptide-stimulated CD8+ T cells: ZIKV MR766-infected mice
# CD8+ T cells [1] = assay: ICS, DENV2-immune Ifnar-/- HLA-B*0702 mice challenged with ZIKV FSS13025; settings: day 3 after ZIKV FSS13025 challenge
# Experimental: (§1) Two ZIKV strains, MR766 (Uganda, 1947) and FSS13025 (Cambodia, 2010), were obtained from the World Reference Center for Emerging Viruses and Arboviruses (WRCEVA). The mouse-adapted DENV2 strain S221 is a triple-plaque purified clone derived from DENV2 D2S1038. Both ZIKV and DENV2 were amplified in C6/36 mosquito cells, and viral titers were measured using baby hamster kidney (BHK)-21 cell-based focus forming assay (FFA). For epitope screening, 5-week old mice (female or male) were infected retro-orbitally (R.O.) with either 1×102 FFU of ZIKV FSS13025 or ZIKV MR766, or 2×10^4 FFU of DENV2 S221 in 200 μl 10% FBS/PBS. Seven days after infection, CD8^+ T cells were isolated from splenocytes and used for ELISPOT assay, while the splenocytes were directly used for ICS assay. Additionally, 5-week old mice were inoculated I.P. with 2×10^3 FFU of DENV2 S221 for 4 weeks.
# Spleens were harvested from virus-infected, mock-immunized, or peptide-immunized mice. 1×10^6 splenocytes were plated in each well of 96-well U-bottom plates and stimulated with individual peptide (10 μg crude peptide or 1 μg pure peptide per well) for 6 hours. Five hours before the end of incubation, Brefeldin A (GolgiPlug; BD Biosciences) and PE-conjugated anti CD107a mAb (clone 1D4B, eBioscience) were added to the cells. Splenocytes stimulated with PMA-ionomycin were used as the positive control, while cells without any stimulation were the negative control. After incubation, cells were first stained with PERCPCY™ 5.5-conjugated anti-CD3 mAb (Clone 145-2C11, TONBO), PE-CY7™-conjugated anti-CD8 mAb (clone 53-67, BD Biosciences), EFLUOR™ 450-conjugated anti-CD44 mAb (clone IM7, eBioscience), and APC eFluor 780-conjugated anti-CD62L mAb (clone Mel-14, eBioscience). Cells were then fixed and permeabilized using CYTOFIX/CYTOPERM™ solution (BD Biosciences), followed by staining with FITC-conjugated anti-IFNγ mAb (clone XMG 1.2, TONBO) and APC-conjugated anti-TNFα mAb (clone MP6-XT22, eBioscience). Samples were run using an LSR™ II (BD Biosciences) and analyzed using FLOWJO™ software X 10.0.7 (Tree Star, Ashland, Oreg.).
# The following results are with respect to FIG. 11 to FIG. 11E, where Ifnar^−/− HLA-B*0702 transgenic mice were inoculated I.P. with 2×10^3 FFU of DENV2 strain S221 for 4 weeks. Naive mice (n=5) and DENV2 strain S221-immune mice (n=5) were challenged R.O. with 1×10^4 FU of ZIKV FSS13025 for three days, and the percentages of peptide-specific IFNγ^+ and/or TNFα^+ CD8^+ T cells were detected by ICS (FIG. 11A and FIG. 11B). […] Data were expressed as mean±SEM. *, P<0.05; **, P<0.01; Two-tailed ann-Whitney test. Black “*” indicates ZIKV-specific response while bold “*” represents ZIKV/DENV cross-reactive response. All positive peptides were grouped according the ZIKV specificity of immune response (FIG. 11E). Numbers in parentheses indicate the number of positive peptides in this group.
# CD8+ T cells [2] = assay: IFNγ ELISPOT, DENV2 S221-infected Ifnar-/- HLA-B*0702 transgenic mice; settings: HLA-B*0702 mice, 7 days after 2×10^4 FFU DENV2 S221
# Experimental: as §1
# CD8^+ T cells were isolated from splenocytes using magnetic bead positive selection (Miltenyi Biotec, Germany) 7 days after virus infection. 2×10^5 CD8^+ T cells were stimulated with 1×10^5 LPS-blasts loaded with 10 μg of individual peptide in 96-well flat-bottom plates (IMMOBILON™-P; Millipore, Bedford, Mass.) that were coated with anti-IFNγ mAb (clone AN18; Mabtech, Stockholm, Sweden) in triplicate. Concanavalin A (ConA) was used as positive control. After 20 hours of incubation, biotinylated anti-mouse IFNγ mAb (R4-6A2; Mabtech), followed by ABC peroxidase (Vector Laboratories, Burlingame, Calif., USA) and then 3-amino-9-ethylcarbazole (Sigma-Aldrich, St. Louis, Mo., USA) were added into the wells. […] A peptide inducing a magnitude of >500 SFCs/10^6 CD8^+ T cells was considered as an immunodominant peptide.
# (§2) The following results are with respect to FIG. 14A and FIG. 14B, where Ifnar^−/− HLA-B*0702 transgenic mice were infected R.O. with 2×10^4 FFU of DENV2 strain S221 for 7 days. CD8^+ T cells isolated from splenocytes were stimulated with each of the 37 ZIKV epitopes identified via IFNγELISPOT to perform (FIG. 14A) IFNγELISPOT and (FIG. 14B) ICS assay. Data represent the average of two independent IFNγELISPOT experiments and two independent ICS experiments (n=7 mice) and are expressed as mean±SEM. Dotted line corresponds to the cutoff value. *, P<0.05.
# CD8+ T cells [3] = assay: IFNγ ELISPOT, ZIKV-infected Ifnar-/- HLA-B*0702 transgenic mice; settings: HLA-B*0702 mice; for SFC/10^6 CD8+ T cells, FSS13025: 7 days after 1×10^2 FFU ZIKV FSS13025; for SFC/10^6 CD8+ T cells, MR766: 7 days after 1×10^2 FFU ZIKV MR766; for immunodominance in IFNγ ELISPOT: immunodominant: >500 SFCs/10^6 CD8+ T cells, shared by both ZIKV strains
# How it was run: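 Mice were infected retro-orbitally with 1×10^2 FFU ZIKV (FSS13025 or MR766), and splenic CD8+ T cells were isolated 7 days later. 2×10^5 cells were stimulated 20 h with 1×10^5 LPS-blasts loaded with 10 μg peptide, in triplicate. Output is SFC/10^6 CD8+ T cells; positive if net >20 and stimulation index >2.0.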
# CD8+ T cells [4] = assay: IFNγ ICS, DENV2 S221-infected Ifnar-/- HLA-B*0702 transgenic mice; settings: HLA-B*0702 mice; for % IFNγ+ CD8+ T cells, S221: 7 days after DENV2 S221, ICS; for ZIKV/DENV cross-reactivity in DENV2-infected mice (IFNγ ELISPOT and IFNγ ICS): DENV2 S221, 7 days
# Experimental: as §1
# Spleens were harvested from virus-infected, mock-immunized, or peptide-immunized mice. 1×10^6 splenocytes were plated in each well of 96-well U-bottom plates and stimulated with individual peptide (10 μg crude peptide or 1 μg pure peptide per well) for 6 hours. Five hours before the end of incubation, Brefeldin A (GolgiPlug; BD Biosciences) and PE-conjugated anti CD107a mAb (clone 1D4B, eBioscience) were added to the cells. Splenocytes stimulated with PMA-ionomycin were used as the positive control, while cells without any stimulation were the negative control. […] Samples were run using an LSR™ II (BD Biosciences) and analyzed using FLOWJO™ software X 10.0.7 (Tree Star, Ashland, Oreg.).
# as §2
sequence,measurement,setting,value
KPRWMDARV [FSS/MR-NS3574-582],"% IFNγ+ CD8+ T cells, FSS13025",CD3+CD8+ T cells,(0.79%)
same,"% IFNγ+ CD8+ T cells, MR766",CD3+CD8+ T cells,(1.9%)
same,simultaneous IFNγ and TNFα production by peptide-stimulated CD8+ T cells,CD3+CD8+ T cells,stimulated simultaneous production of IFNγ and TNFα
same,IFNγ and TNFα double-positive epitope-specific CD8+ T cells,CD8+ T cells [1],double-positive with expression of both IFNγ and TNFα
same,percentage of epitope-specific IFNγ-producing CD8+ T cells,CD8+ T cells [1],2.61±1.19%
same,"SFC/10^6 CD8+ T cells, S221",CD8+ T cells [2],350 SFC/10^6 CD8+ T cells
same,"SFC/10^6 CD8+ T cells, FSS13025",CD8+ T cells [3],969 SFC/10^6 CD8+ T cells
same,"SFC/10^6 CD8+ T cells, MR766",CD8+ T cells [3],1095 SFC/10^6 CD8+ T cells
same,immunodominance in IFNγ ELISPOT,CD8+ T cells [3],immunodominant
same,"% IFNγ+ CD8+ T cells, S221",CD8+ T cells [4],(0.63%)
same,ZIKV/DENV cross-reactivity in DENV2-infected mice (IFNγ ELISPOT and IFNγ ICS),CD8+ T cells [4],positive in both IFNγ ELISPOT and IFNγICS assays
RPALLVSFIF [FSS/MR-NS2A75-84],"% IFNγ+ CD8+ T cells, FSS13025",CD3+CD8+ T cells,(0.53%)
same,"% IFNγ+ CD8+ T cells, MR766",CD3+CD8+ T cells,(2.04%)
same,simultaneous IFNγ and TNFα production by peptide-stimulated CD8+ T cells,CD3+CD8+ T cells,stimulated simultaneous production of IFNγ and TNFα
same,IFNγ and TNFα double-positive epitope-specific CD8+ T cells,CD8+ T cells [1],double-positive with expression of both IFNγ and TNFα
same,percentage of epitope-specific IFNγ-producing CD8+ T cells,CD8+ T cells [1],0.44±0.24%
same,"SFC/10^6 CD8+ T cells, S221",CD8+ T cells [2],88 SFC/10^6 CD8+ T cells
same,"SFC/10^6 CD8+ T cells, FSS13025",CD8+ T cells [3],713 SFC/10^6 CD8+ T cells
same,"SFC/10^6 CD8+ T cells, MR766",CD8+ T cells [3],582 SFC/10^6 CD8+ T cells
same,immunodominance in IFNγ ELISPOT,CD8+ T cells [3],immunodominant
same,"% IFNγ+ CD8+ T cells, S221",CD8+ T cells [4],(0.58%)
same,ZIKV/DENV cross-reactivity in DENV2-infected mice (IFNγ ELISPOT and IFNγ ICS),CD8+ T cells [4],positive in both IFNγ ELISPOT and IFNγICS assays
